Earlier results, collected in patent US5135753A, “Method and therapeutic system for smoking cessation” (Pharmetrix Corporation, priority 1991, dated 1992).

Legend:
skin = conditions: average penetration rate through the skin; very approximate figures
[1] = Russell
[2] = system: nicotinic cholinergic receptors in the CNS and at autonomic ganglia; conditions: in 10 minutes
[3] = system: smoking withdrawal symptoms; conditions: low consistent blood levels of nicotine; craving may not be among the relieved symptoms

SMILES	skin flux (skin)	permeability at later times (human cadaver skin; at later times, "and more") [mg/cm^2.h]	permeability during the first day of patch use (human cadaver skin; first day of patch use) [mg/cm^2.h]	lethal unit dose (average adult)	optimal steady-state blood level for nicotine replacement [1] [ng/mL]	rise in nicotine blood level required to obtain postsynaptic effects [2]	symptoms of nicotine withdrawal [3]
Clc1cccc(Cl)c1N=C1NCCN1 [clonidine]	0.5 μg/cm^2.h	–	–	–	–	–	–
C[C@]12CC[C@@H]3c4ccc(O)cc4CC[C@H]3[C@@H]1CC[C@@H]2O [estradiol]	0.01-0.03 μg/cm^2.h	–	–	–	–	–	–
CN1CCCC1c1cccnc1 (stereo not shown) [nicotine]	100-300 μg/cm^2.h	≥ 0.4	~0.1	about 60 mg	10 to 15	at least 10 ng/mL	relieve some of the symptoms of nicotine withdrawal
O=[N+]([O-])OCC(CO[N+](=O)[O-])O[N+](=O)[O-] [nitroglycerin]	10-25 μg/cm^2.h	–	–	–	–	–	–
